Experimental data taken from article PMC9065877, “Safety, tolerability and pharmacokinetics of the oligomer modulator anle138b with exposure levels sufficient for therapeutic efficacy in a murine Parkinson model: A randomised, double-blind, placebo-controlled phase 1a trial” (EBioMedicine, 2022).

What was measured:
[1] = tested on: striatal dopamine (DA) release in MI2 mice; assay: Dose-response study in MI2 mice: striatal dopamine release by in vivo microdialysis; parameters: species or system mouse; settings: up to 300 mg/kg/day in food
Procedure: An anle138b pharmacodynamics dose-response study was performed using MI2 mice, a novel model of α-synucleinopathy characterized by a progressive PD-like phenotype including accumulation of α-synuclein inclusions in nigrostriatal dopaminergic neurons and impairment of striatal dopamine (DA) release (Wegrzynowicz et al., 2019). The research was carried out in accordance with the Animals (Scientific Procedures) Act 1986 Amendment Regulations 2012 after the review by the University of Cambridge Animal Welfare and Ethical Review Body (AWERB), under the project license 70/8383. Anle138b treatment was commenced at 6 months, an age when impairment of striatal DA release is already observed in MI2 mice, but prior to nigral neuronal loss. […] After 2 months of treatment (at the age of 8 months), striatal release of DA was analysed using in vivo microdialysis, as previously reported (Wegrzynowicz et al., 2019). […] DA levels in the microdialysates were measured by high performance liquid chromatography with electrochemical detection, as described in (Garcia-Reitböck et al., 2010). […] The obtained chromatograms were analysed with Chromeleon Chromatography Data System (V 6·2; Dionex). […]

[2] = animal studies; cited from earlier work

Brc1cccc(-c2cc(-c3ccc4c(c3)OCO4)n[nH]2)c1 [anle138b, 3-(1,3-benzodioxol-5-yl)-5-(3-bromophenyl)-1H-pyrazole]
Effect on striatal dopamine release at higher doses [1]: stabile maximal effects were observed
Levels of anle138b in the brain relative to plasma [2]: 5 fold
Oral bioavailability (in words) [2]: high oral bioavailability
